Laboratory results as given in paper PMC13095408, “DBeQ derivative targets vacuolar protein sorting 4 functions in cancer cells and suppresses tumor growth in mice” (The Journal of Pharmacology and Experimental Therapeutics, 2025).

What was measured:
[1] = system: GFP-CHMP4B-expressing U2OS cells; assay: GFP-CHMP4B accumulation cell-based assay (high-content microscopy); details: for 4-107-induced GFP-CHMP4B accumulation on co-treatment: 100 nM BafA1 or 50 μM CQ with 2 μM 4-107, starved, 2 hours
Protocol: Plates were then scanned using the 20× objective for 1 hour with ≥100 cells/well across 6 fields/well. […] For all other assays, the cells were cultured overnight in black glass-bottom 96-well plates (Cellvis; P96-1.5H-N) then stained, rinsed, and treated with SM containing the indicated compounds (0.1% DMSO or 0.1% DMSO/0.1% ethanol [vehicle] final). Plates were scanned using the 20× NA .70 objective at the indicated intervals with ≥ 300 cells/well across 3 fields/well. […]

VPS4B = target: T1, VPS4B (Homo sapiens, UniProt O75351); assay: VPS4B ATPase activity, EnzChek Phosphate assay; assay type: biochemical; design: His tag (pET28a vector-encoded) (N); made in house; host or cells: Escherichia coli BL21(DE3)
T1 sequence (O75351 1-444): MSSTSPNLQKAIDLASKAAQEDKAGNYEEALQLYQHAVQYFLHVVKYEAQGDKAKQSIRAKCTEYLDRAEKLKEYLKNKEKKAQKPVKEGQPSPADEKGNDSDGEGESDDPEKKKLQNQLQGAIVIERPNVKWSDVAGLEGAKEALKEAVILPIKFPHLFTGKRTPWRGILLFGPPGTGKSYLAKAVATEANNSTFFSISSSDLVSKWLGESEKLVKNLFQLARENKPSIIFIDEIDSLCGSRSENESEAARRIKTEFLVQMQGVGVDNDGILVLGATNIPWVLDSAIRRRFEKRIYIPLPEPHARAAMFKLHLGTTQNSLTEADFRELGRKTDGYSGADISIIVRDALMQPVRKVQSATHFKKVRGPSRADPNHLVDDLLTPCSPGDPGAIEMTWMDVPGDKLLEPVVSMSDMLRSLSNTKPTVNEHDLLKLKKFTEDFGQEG
Protocol: VPS4B and VCP ATPase activities were measured using the EnzChek Phosphate assay for the quantification of released phosphate. Assay buffers were based on literature precedents ([Cupido et al, 2019], [2021]) as follows: VPS4B buffer (20 mM HEPES-KOH, pH 7.4, 25 mM KOAc, 2 mM MgCl2, 5 mM (NH4)2SO4, 0.5 mM CaCl2, 2.5 mM DTT, 0.1 mg/mL BSA, 0.005% v/v Triton X-100), VCP buffer (20 mM HEPES-NaOH, pH 7.4, 20 mM NaCl, 10 mM MgCl2, 5 mM (NH4)2SO4, 0.5 mM CaCl2, 2.5 mM DTT, 0.1 mg/mL BSA, 0.005% v/v Triton X-100). In black clear-bottom 384-well plates, 22.5 μL of 5% DMSO or 40× test compounds diluted in the respective assay buffer was added to each well. ATPases were diluted to 1 μM in the respective buffers containing 2× EnzChek Phosphate assay coupling reagents of 400 μM MESG and 2 U of PNP, then 25 μL was added to each well. Plates were mixed at 1000 rpm for 30 minutes at RT while being protected from light. The reaction was initiated by adding 2.5 μL of 20 mM MgATP or water followed by mixing at 1200 rpm for 30 seconds at RT. Plates were measured at 360 nm using a CLARIOstar plate reader (BMG LABTECH) for 20 minutes at 37 °C. ATPase activity was calculated as the amount of phosphate released over a 5-minute interval under linear initial velocity conditions. The remaining ATPase activity was calculated by normalizing compound-treated activity values to the DMSO control. IC50 was calculated by fitting normalized values to a sigmoidal dose-response curve with Hill slope = −1 using Graph Pad Prism 10.0.
To identify VPS4i, we developed enzyme- and cell-based VPS4 functional assays to serve as VPS4i-screening platforms. For the enzyme-based assay, we used the colorimetric EnzChek Phosphate assay that detects free phosphate with the advantage of continuous measurement of ATP hydrolysis over time. […] Due to the high sequence and structural similarity of AAA-ATPases, we also established a VCP ATPase assay to evaluate hit selectivity. […] For the cell-based assay, our approach was based on how VPS4 inhibition causes the accumulation of ESCRT-III ([Babst et al, 1998]; [Katoh et al, 2003]). We used an N-terminal GFP-tagged CHMP4B reporter system because it is the most abundant ESCRT-III subunit ([Katoh et al, 2004]; [Teis et al, 2008]). Our aim was to test compounds under short-term serum and amino acid starvation to stimulate ESCRT activity for easier detection of inhibitors ([Takahashi et al, 2018], [2019]). […] Overall, we established 2 systems for VPS4i screening, a VPS4B ATPase activity assay and a GFP-CHMP4B accumulation cell-based assay.

[2] = remaining ATPase activity, screened at 5 μM, mean ± SD, Table 1
[3] = screened at 5 µM, mean ± S.D., Supplemental Table 2
[4] = screened at 1 µM, mean ± S.D., Supplemental Table 2
[5] = screened at 1 μM, starvation media, 1 hour, foci intensity per cell normalized to 4-107, mean ± SD, Table 1

| Structure (SMILES) | VPS4B ATPase (% DMSO) (VPS4B; [3]) | GFP-CHMP4B (% 4-107) [1, 4] | also measured |
| --- | --- | --- | --- |
| CO/C1=C\C(C)=C\[C@@H](C)[C@@H](O)[C@@H](C)C/C(C)=C/C=C/[C@H](OC)[C@@H]([C@@H](C)[C@@H](O)[C@H](C)[C@@]2(O)C[C@@H](O)[C@H](C)[C@@H](C(C)C)O2)OC1=O [BafA1, bafilomycin A1, reference compound] | – | – | 4-107-induced GFP-CHMP4B accumulation on co-treatment [1]: blocked |
| CCN(CC)CCCC(C)Nc1ccnc2cc(Cl)ccc12 (stereo not shown) [CQ, chloroquine diphosphate, reference compound] | – | – | 4-107-induced GFP-CHMP4B accumulation on co-treatment [1]: blocked |
| NCc1ccccc1 [Compound 2] | 55.31 ± 5.04 % DMSO | 6.69 ± 3.07 % 4-107 | VPS4B ATPase (% DMSO) (VPS4B; [2]): 55.31 ± 5.04 % DMSO; GFP-CHMP4B (% 4-107) [1, 5]: 6.69 ± 3.07 % 4-107 |
| COc1cccc2c(NCc3ccccc3)nc(Cl)nc12 [Compound 3] | 71.88 ± 3.41 % DMSO | – | VPS4B ATPase (% DMSO) (VPS4B; [2]): 71.88 ± 3.41 % DMSO; GFP-CHMP4B (% 4-107) ([1]; screened at 1 µM, mean ± S.D., Supplemental Table 2, listed as 5-125): 3.86 ± 2.41 % 4-107; GFP-CHMP4B (% 4-107) [1, 5]: 3.86 ± 2.41 % 4-107 |
| COc1cccc2c(NCc3ccccc3)nc(Cl)nc12 [Compound 4-95] | – | 1.76 ± 0.74 % 4-107 | – |
| COC(=O)c1cccc(CNc2nc(NCc3cccc(C(=O)OC)c3)c3cccc(OC)c3n2)c1 [Compound 4-131-iii] | 34.70 ± 0.70 % DMSO | 11.94 ± 9.74 % 4-107 | – |
| COc1cccc2c(NCc3cccc(C(=O)O)c3)nc(NCc3cccc(C(=O)O)c3)nc12 [Compound 4-131-iv] | 105.12 ± 0.39 % DMSO | 1.10 ± 0.68 % 4-107 | – |
| COc1cccc2c(NCc3ccccc3)nc(NCc3ccccc3)nc12 [Compound 4] | – | – | VPS4B ATPase (% DMSO) (VPS4B; [2]): 75.23 ± 0.63 % DMSO; VPS4B ATPase (% DMSO) (VPS4B; screened at 5 µM, mean ± S.D., Supplemental Table 2, listed as 5-133): 75.23 ± 0.63 % DMSO; GFP-CHMP4B (% 4-107) ([1]; screened at 1 µM, mean ± S.D., Supplemental Table 2, listed as 5-133): 2.92 ± 2.81 % 4-107; GFP-CHMP4B (% 4-107) [1, 5]: 2.92 ± 2.81 % 4-107 |
| COc1cccc2c(NCCc3ccccc3)nc(NCCc3ccccc3)nc12 [Compound 5-03] | 30.96 ± 1.37 % DMSO | 2.31 ± 1.75 % 4-107 | – |
| COc1cccc2c(NCc3ccc(Cl)cc3)nc(NCc3ccc(Cl)cc3)nc12 [Compound 5-07] | 28.5 ± 0.04 % DMSO | 14.56 ± 10.71 % 4-107 | – |
| COc1cccc2c(NCc3ccncc3)nc(NCc3ccncc3)nc12 [Compound 5-11] | 82.46 ± 1.64 % DMSO | 1.10 ± 0.76 % 4-107 | – |
| COc1cccc2c(NCCc3cccc(S(N)(=O)=O)c3)nc(NCCc3ccc(S(N)(=O)=O)cc3)nc12 [Compound 5-15-iv] | 77.37 ± 4.37 % DMSO | 3.22 ± 0.67 % 4-107 | – |
| COc1cccc2c(NCc3ccc(S(N)(=O)=O)cc3)nc(Cl)nc12 [Compound 5-17] | 86.08 ± 7.25 % DMSO | 2.87 ± 0.27 % 4-107 | – |
| COc1cccc2c(NCc3cccc(OC(F)(F)F)c3)nc(NCc3ccccc3)nc12.Cl [Compound 5-33-iv] | 25.77 ± 2.48 % DMSO | 5.27 ± 1.53 % 4-107 | – |
| COc1cccc2c(NCc3ccccc3)nc(NCc3cccc(C(=O)O)c3)nc12 [Compound 5-35-iv] | 88.20 ± 5.24 % DMSO | 10.92 ± 9.21 % 4-107 | – |
| COc1cccc2c(NCc3ccccc3)nc(-n3ccc4ccc(C(=O)O)cc43)nc12 [Compound 5-39-iv] | 93.04 ± 0.65 % DMSO | 1.59 ± 0.93 % 4-107 | – |
| COC(=O)c1ccc2c(ccn2-c2nc(NCc3ccccc3)c3cccc(OC)c3n2)c1 [Compound 5-41-iii] | 80.70 ± 2.02 % DMSO | 2.82 ± 1.33 % 4-107 | – |
| COc1cccc2c(NCc3ccccc3)nc(-n3ccc4cc(C(=O)O)ccc43)nc12 [Compound 5-41-iv] | 87.4 ± 1.43 % DMSO | 1.29 ± 1.06 % 4-107 | – |

| Structure (SMILES) | VPS4B ATPase (% DMSO) (VPS4B; [3]) | GFP-CHMP4B (% 4-107) [1, 4] | also measured |
| --- | --- | --- | --- |
| COC(=O)c1ccc2ccn(-c3nc(NCCc4ccc(S(N)(=O)=O)cc4)c4cccc(OC)c4n3)c2c1 [Compound 5-43-iii] | 94.98 ± 0.53 % DMSO | 3.01 ± 1.98 % 4-107 | – |
| COc1cccc2c(NCCc3ccc(S(N)(=O)=O)cc3)nc(-n3ccc4ccc(C(=O)O)cc43)nc12 [Compound 5-43-iv] | 99.19 ± 4.43 % DMSO | 1.27 ± 0.69 % 4-107 | – |
| COC(=O)c1ccc2c(ccn2-c2nc(NCc3ccc(S(N)(=O)=O)cc3)c3cccc(OC)c3n2)c1 [Compound 5-47] | – | 1.41 ± 0.61 % 4-107 | – |
| COc1ncnc2c1ccn2-c1nc(NCc2ccccc2)c2cccc(OC)c2n1 [Compound 5-51] | 91.51 ± 3.26 % DMSO | 2.51 ± 1.24 % 4-107 | – |
| COc1ncnc2c1ccn2-c1nc(NCCc2ccccc2)c2cccc(OC)c2n1 [Compound 5-53] | 72.71 ± 0.81 % DMSO | 1.68 ± 0.33 % 4-107 | – |
| COc1cccc2c(NCc3ccc(C(F)(F)F)cc3)nc(-n3ccc4cncnc43)nc12 [Compound 5-55] | 93.20 ± 1.22 % DMSO | 2.25 ± 0.55 % 4-107 | – |
| COc1ncnc2c1ccn2-c1nc(NCc2ccc(C(F)(F)F)cc2)c2cccc(OC)c2n1 [Compound 5-57] | 93.98 ± 3.83 % DMSO | 2.44 ± 0.81 % 4-107 | – |
| COc1cccc2c(NCCc3ccccc3)nc(-n3ccc4cncnc43)nc12 [Compound 5-59] | 97.54 ± 1.15 % DMSO | 2.84 ± 0.06 % 4-107 | – |
| COc1cccc2c(NCCc3cccnc3)nc(-n3ccc4cncnc43)nc12 [Compound 5-63] | 90.35 ± 0.07 % DMSO | 5.28 ± 0.27 % 4-107 | – |
| Fc1ccc2nc(NCc3ccccc3)nc(NCc3ccccc3)c2c1 [Compound 5-143] | – | 11.12 ± 2.40 % 4-107 | – |
| COc1cccc2nc(NCc3ccccc3)nc(NCc3ccccc3)c12 [Compound 7-27] | – | 19.55 ± 2.22 % 4-107 | – |
| COc1ccc2c(Nc3ccccc3)nc(Cl)nc2c1 [Compound 7-41] | – | 17.93 ± 2.08 % 4-107 | – |
| COc1ccc2c(Nc3ccccc3)nc(NCc3ccccc3)nc2c1 [Compound 7-45] | – | 24.94 ± 5.94 % 4-107 | – |
| COc1ccc(CNc2nc(NCc3ccccc3)c3cccc(N)c3n2)cc1 [Compound 7-65] | – | 17.36 ± 5.75 % 4-107 | – |
| Nc1cccc2c(NCc3ccccc3)nc(NCc3ccc(F)cc3)nc12 [Compound 7-69] | – | 20.04 ± 6.12 % 4-107 | – |
| COc1cccc2c(Nc3ccccc3)nc(NCc3ccccc3)nc12 [Compound 7-75] | – | 11.57 ± 12.42 % 4-107 | – |
| Nc1cccc2c(NCc3ccccc3)nc(NCc3cccc(F)c3)nc12 [Compound 7-77] | – | 26.24 ± 20.18 % 4-107 | – |
